Test results as given in BigSolDB 2.1.

O=C(O)c1ccco1
solubility (mole fraction)
Conditions	in 1,2-dichloroethane	in MIBK	in acetonitrile	in diisopropyl ether	in methanol	in n-hexane	in toluene
283.15 K	0.014	0.095	0.046	0.035	0.347	–	0.005
288.15 K	0.017	0.11	0.057	0.041	0.393	–	0.006
293.15 K	0.023	0.122	0.064	0.048	0.428	–	0.008
298.15 K	0.029	0.137	0.077	0.054	0.451	0.001	0.011
303.15 K	0.035	0.154	0.093	0.061	0.48	0.001	0.013
308.15 K	0.046	0.177	0.115	0.069	0.504	0.001	0.017
313.15 K	0.057	0.195	0.132	0.077	0.524	0.002	0.021
318.15 K	0.068	0.211	0.155	0.087	0.551	0.002	0.027
323.15 K	0.084	0.237	0.182	0.097	0.571	0.003	0.034
328.15 K	0.103	0.26	0.208	0.108	0.607	0.004	0.045
333.15 K	0.126	0.286	0.242	0.121	0.643	0.005	0.056
